In patent publication US8933018B2, “Boron containing polybasic bacterial efflux pump inhibitors and therapeutic uses thereof” (priority 2011, dated 2015):

These compounds were tested on P. aeruginosa, PAM1723, overexpressing the MexAB-OprM efflux pump. Conditions: lowest EPI concentration giving antibacterial activity with levofloxacin at 1/8 of its MIC, MHB, 20 h at 35° C.
Assay type: cell-based, Pseudomonas aeruginosa
Description: All EPI compounds were readily soluble in water and stock solutions were prepared at a final concentration of 10 mg/ml. Stock solutions were further diluted, according to the needs of the particular assay, in Mueller Hinton Broth (MHB). Stock solution was stored at […].
The checkerboard assay was performed in microtiter plates. […] EPIs were diluted in the y-axis, each row containing a single concentration of an EPI. […] The assay was performed in MHB with a final bacterial inoculum of 5 times 10^5 CFU/ml (from an early-log phase culture). Microtiter plates were incubated during 20 h at 35° C. and were read using a microtiter plate reader (Molecular Devices) at 650 nm as well as visual observation using a microtiter plate-reading mirror.

Structure (SMILES)	MPC8 (Minimum Potentiating Concentration)
NCCN(CCN)C(=O)CC[C@H](N)C(=O)N[C@H](CCc1ccc(C(F)(F)F)cc1)C(=O)Nc1cc(F)cc(B(O)O)c1 [Compound 33, 3-((R)-2-((S)-2-amino-5-(bis(2-aminoethyl)amino)-5-oxopentanamido)-4-(4-(trifluoromethyl)phenyl)butanamido)-5-fluorophenylboronic acid]	A (A = MPC8 of less than 2.5 μg/mL.)
NCCN(CCN)C(=O)CC[C@H](N)C(=O)N[C@H](CCc1ccc(C(F)(F)F)cc1)C(=O)Nc1cc(F)c(F)c(B(O)O)c1 [Compound 34, 5-((R)-2-((S)-2-amino-5-(bis(2-aminoethyl)amino)-5-oxopentanamido)-4-(4-(trifluoromethyl)phenyl)butanamido)-2,3-difluorophenylboronic acid]	C (C = MPC8 of 10 μg/mL or greater.)
NCCN(CCN)C(=O)CC[C@H](N)C(=O)N[C@H](CCc1ccc(C(F)(F)F)cc1)C(=O)Nc1ccc(B(O)O)cc1F [Compound 35, 4-((R)-2-((S)-2-amino-5-(bis(2-aminoethyl)amino)-5-oxopentanamido)-4-(4-(trifluoromethyl)phenyl)butanamido)-3-fluorophenylboronic acid]	B (B = MPC8 of 2.5 μg/ml to less than 10 μg/mL.)
NCCN(CCN)C(=O)CC[C@H](N)C(=O)N[C@H](CCc1ccc(C(F)(F)F)cc1)C(=O)NC[C@@H]1OB(O)c2ccccc21 [Compound 37, (S)-2-amino-N5,N5-bis(2-aminoethyl)-N1-((R)-1-(((R)-1-hydroxy-1,3-dihydrobenzo[c][1,2]oxaborol-3-yl)methylamino)-1-oxo-4-(4-(trifluoromethyl)phenyl)butan-2-yl)pentanediamide]	A (A = MPC8 of less than 2.5 μg/mL.)
CC1(C)OB(O)c2cc(NC(=O)[C@@H](CCc3ccc(C(F)(F)F)cc3)NC(=O)[C@@H](N)CCC(=O)N[C@@H]3C[C@H](N)C[C@H](N)C3)ccc21 [Compound 38, (S)-2-amino-N5-((1s,3R,5S)-3,5-diaminocyclohexyl)-N1-((R)-1-(1-hydroxy-3,3-dimethyl-1,3-dihydrobenzo[c][1,2]oxaborol-6-ylamino)-1-oxo-4-(4-(trifluoromethyl)phenyl)butan-2-yl)pentanediamide]	A (A = MPC8 of less than 2.5 μg/mL.)
CC1(C)OB(O)c2cc(NC(=O)[C@@H](CCc3ccc(C(F)(F)F)cc3)NC(=O)[C@@H](N)CCC(=O)NC(CN)CN)ccc21 [Compound 39, (S)-2-amino-N^5-(1,3-diaminopropan-2-yl)-N^1-((R)-1-(1-hydroxy-3,3-dimethyl-1,3-dihydrobenzo[c][1,2]oxaborol-6-ylamino)-1-oxo-4-(4-(trifluoromethyl)phenyl)butan-2-yl)pentanediamide]	A (A = MPC8 of less than 2.5 μg/mL.)
CC1(C)OB(O)c2cc(NC(=O)[C@@H](CCc3ccc(C(F)(F)F)cc3)NC(=O)[C@@H](N)CCC(=O)N(C[C@@H](O)CN)C[C@@H](O)CN)ccc21 [Compound 40, (S)-2-amino-N^5,N^5-bis((S)-3-amino-2-hydroxypropyl)-N^1-((R)-1-(1-hydroxy-3,3-dimethyl-1,3-dihydrobenzo[c][1,2]oxaborol-6-ylamino)-1-oxo-4-(4-(trifluoromethyl)phenyl)butan-2-yl)pentanediamide]	B (B = MPC8 of 2.5 μg/ml to less than 10 μg/mL.)
CC1(C)OB(O)c2cc(NC(=O)[C@@H](CCc3ccc(C(F)(F)F)cc3)NC(=O)[C@@H](N)CCC(=O)N3C[C@@H](N)C[C@H]3CN)ccc21 [Compound 41, (S)-2-amino-5-((2S,4S)-4-amino-2-(aminomethyl)pyrrolidin-1-yl)-N-((R)-1-(1-hydroxy-3,3-dimethyl-1,3-dihydrobenzo[c][1,2]oxaborol-6-ylamino)-1-oxo-4-(4-(trifluoromethyl)phenyl)butan-2-yl)-5-oxopentanamide]	B (B = MPC8 of 2.5 μg/ml to less than 10 μg/mL.)
CC1(C)OB(O)c2cc(NC(=O)[C@@H](CCc3ccc(C(F)(F)F)cc3)NC(=O)[C@@H](N)CCC(=O)N3C4CCC3[C@H](CN)[C@@H]4CN)ccc21 [Compound 42, (2S)-2-amino-5-((2R,3S)-2,3-bis(aminomethyl)-7-azabicyclo[2.2.1]heptan-7-yl)-N-((R)-1-(1-hydroxy-3,3-dimethyl-1,3-dihydrobenzo[c][1,2]oxaborol-6-ylamino)-1-oxo-4-(4-(trifluoromethyl)phenyl)butan-2-yl)-5-oxopentanamide]	A (A = MPC8 of less than 2.5 μg/mL.)
NCCN(CCN)C(=O)CC[C@H](N)C(=O)N[C@H](Cc1ccc(C(F)(F)F)cc1)C(=O)Nc1cnc2ccc(B(O)O)cc2c1 [Compound 43, 3-((R)-2-((S)-2-amino-5-(bis(2-aminoethyl)amino)-5-oxopentanamido)-3-(4-(trifluoromethyl)phenyl)propanamido)quinolin-6-ylboronic acid]	B (B = MPC8 of 2.5 μg/ml to less than 10 μg/mL.)
NCCN(CCN)C(=O)CC[C@H](N)C(=O)N[C@H](CCc1ccc(C(F)(F)F)cc1)C(=O)Nc1cnc2ccc(B(O)O)cc2c1 [Compound 44, 3-((R)-2-((S)-2-amino-5-(bis(2-aminoethyl)amino)-5-oxopentanamido)-4-(4-(trifluoromethyl)phenyl)butanamido)quinolin-6-ylboronic acid]	A (A = MPC8 of less than 2.5 μg/mL.)
N[C@@H]1C[C@H](N)C[C@H](NC(=O)CC[C@H](N)C(=O)N[C@H](CCc2ccc(C(F)(F)F)cc2)C(=O)Nc2ccc3c(c2)B(O)OC3)C1 [Compound 66, (S)-2-amino-N^5-((1s,3R,5S)-3,5-diaminocyclohexyl)-N^1-((R)-1-(1-hydroxy-1,3-dihydrobenzo[c][1,2]oxaborol-6-ylamino)-1-oxo-4-(4-(trifluoromethyl)phenyl)butan-2-yl)pentanediamide]	B (B = MPC8 of 2.5 μg/ml to less than 10 μg/mL.)
CC1(C)OB(O)c2cc(NC(=O)[C@@H](Cc3ccc(C(F)(F)F)cc3)NC(=O)[C@@H](N)CCC(=O)N3C[C@H](N)C[C@H](N)C3)ccc21 [Compound 67, (S)-2-amino-5-((3R,5S)-3,5-diaminopiperidin-1-yl)-N-((R)-1-(1-hydroxy-3,3-dimethyl-1,3-dihydrobenzo[c][1,2]oxaborol-6-ylamino)-1-oxo-3-(4-(trifluoromethyl)phenyl)propan-2-yl)-5-oxopentanamide]	B (B = MPC8 of 2.5 μg/ml to less than 10 μg/mL.)
CC1(C)OB(O)c2cc(NC(=O)[C@@H](Cc3ccc(C(F)(F)F)cc3)NC(=O)[C@@H](N)CCC(=O)N3C[C@@H](N)C[C@H](N)C3)ccc21 [Compound 74, (S)-2-amino-5-((3S,5S)-3,5-diaminopiperidin-1-yl)-N-((R)-1-(1-hydroxy-3,3-dimethyl-1,3-dihydrobenzo[c][1,2]oxaborol-6-ylamino)-1-oxo-3-(4-(trifluoromethyl)phenyl)propan-2-yl)-5-oxopentanamide]	B (B = MPC8 of 2.5 μg/ml to less than 10 μg/mL.)
CC1(C)OB(O)c2cc(NC(=O)[C@@H](Cc3ccc(C(F)(F)F)cc3)NC(=O)[C@@H](N)CCC(=O)N3C[C@@H](N)C[C@H]3CN)ccc21 [Compound 75, (S)-2-amino-5-((2S,4S)-4-amino-2-(aminomethyl)pyrrolidin-1-yl)-N-((R)-1-(1-hydroxy-3,3-dimethyl-1,3-dihydrobenzo[c][1,2]oxaborol-6-ylamino)-1-oxo-3-(4-(trifluoromethyl)phenyl)propan-2-yl)-5-oxopentanamide]	B (B = MPC8 of 2.5 μg/ml to less than 10 μg/mL.)
CC(C)c1ccc(C[C@@H](NC(=O)[C@@H](N)CCC(=O)N(CCN)CCN)C(=O)Nc2ccc3c(c2)B(O)OC3(C)C)cc1 [Compound 78, (S)-2-amino-N5,N5-bis(2-aminoethyl)-N^1-((R)-1-(1-hydroxy-3,3-dimethyl-1,3-dihydrobenzo[c][1,2]oxaborol-6-ylamino)-3-(4-isopropylphenyl)-1-oxopropan-2-yl)pentanediamide]	A (A = MPC8 of less than 2.5 μg/mL.)
CC1(C)OB(O)c2ccc(NC(=O)[C@@H](Cc3ccc(C(F)(F)F)cc3)NC(=O)[C@@H](N)CCC(=O)N(CCN)CCN)cc21 [Compound 84, (S)-2-amino-N^5,N^5-bis(2-aminoethyl)-N^1-((R)-1-(1-hydroxy-3,3-dimethyl-1,3-dihydrobenzo[c][1,2]oxaborol-5-ylamino)-1-oxo-3-(4-(trifluoromethyl)phenyl)propan-2-yl)pentanediamide]	B (B = MPC8 of 2.5 μg/ml to less than 10 μg/mL.)
CC1(C)OB(O)c2ccc(CNC(=O)[C@@H](Cc3ccc(C(F)(F)F)cc3)NC(=O)[C@@H](N)CCC(=O)N(CCN)CCN)cc21 [Compound 90, (S)-2-amino-N^5,N^5-bis(2-aminoethyl)-N^1-((R)-1-((1-hydroxy-3,3-dimethyl-1,3-dihydrobenzo[c][1,2]oxaborol-5-yl)methylamino)-1-oxo-3-(4-(trifluoromethyl)phenyl)propan-2-yl)pentanediamide]	B (B = MPC8 of 2.5 μg/ml to less than 10 μg/mL.)
CC1(C)OB(O)c2ccc(CNC(=O)[C@@H](CCc3ccc(C(F)(F)F)cc3)NC(=O)[C@@H](N)CCC(=O)N(CCN)CCN)cc21 [Compound 93, (S)-2-amino-N^5,N^5-bis(2-aminoethyl)-N^1-((R)-1-((1-hydroxy-3,3-dimethyl-1,3-dihydrobenzo[c][1,2]oxaborol-5-yl)methylamino)-1-oxo-4-(4-(trifluoromethyl)phenyl)butan-2-yl)pentanediamide]	B (B = MPC8 of 2.5 μg/ml to less than 10 μg/mL.)
